Source: the supplement of paper PMC10307832

Assays:
Experiment in all cases: relative viability (nuclei count vs DMSO), 5 days (fraction); higher = more cells survive
[1] = compound: C1/C(=C\C2=CC=CS2)/C(=O)/C(=C/C3=CC=CS3)/C1
Procedure, shortened: (§1)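 Hoechst staining, done together with fixation and permeabilisation, marked nuclei for 4× imaging and MetaXpress counting. This followed 5 days without medium change after lung cancer cell lines, kept overnight at 37 °C in 1536-well plates, were pinned with five library-drug doses (not always all listed) spaced by √10 on vehicle-anchored plates. Viability is the ratio of treated-well to vehicle-well nuclei, expressed as a median across plates. Plates passed only at control CV below 25% with at least one doubling.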

[2] = compound: C[C@]12O[C@H](C[C@]1(O)CO)n1c3ccccc3c3c4c(c5c6ccccc6n2c5c31)CNC4=O [Lestaurtinib]
Procedure, shortened: as §1

[3] = compound: C1=CC(=CC=C1C2=CC(=C(S2)NC(=O)N)C(=O)N)F [TPCA-1]
Procedure, shortened: as §1

[4] = compound: C1/C(=C\C2=CC=CS2)/C(=O)/C(=C/C3=CC=CS3)/C1 + Cc1nc(NC(=O)N2CCC[C@H]2C(N)=O)sc1-c1ccnc(C(C)(C)C(F)(F)F)c1 [Alpelisib] (partner 2 µM)
Procedure, shortened: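 Lung cancer cell lines were pin-tool dosed in 1536-well plates on the day after seeding, with either a lone drug or a fixed anchor-drug dose plus five library-drug doses (not always all listed) in √10 steps. Nuclei were counted on 4× images after 5 days. Relative viability is the ratio of treated-well to vehicle-well nuclei counts, with each value a median of duplicate plates.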

Cell Line	relative viability ([1]; 0.2 µM)	relative viability ([1]; 0.6325 µM)	relative viability ([1]; 2 µM)	relative viability ([1]; 6.325 µM)	relative viability ([1]; 20 µM)	relative viability ([2]; 0.005 µM)	relative viability ([2]; 0.01581 µM)	relative viability ([2]; 0.05 µM)	relative viability ([2]; 0.1581 µM)	relative viability ([2]; 0.5 µM)	relative viability ([3]; 0.04 µM)	relative viability ([3]; 0.1265 µM)	relative viability ([3]; 0.4 µM)	relative viability ([3]; 1.265 µM)	relative viability ([3]; 4 µM)	relative viability ([4]; first compound 0.2 µM)	relative viability ([4]; first compound 0.6325 µM)	relative viability ([4]; first compound 2 µM)	relative viability ([4]; first compound 6.325 µM)	relative viability ([4]; first compound 20 µM)
NCI-H1993	1.04	0.898	1.05	0.786	0.861	1.02	0.949	0.824	0.709	0.567	0.985	0.805	0.94	1.06	0.722	0.698	0.655	0.633	0.703	0.637
NCI-H23	1.13	1.21	1.11	0.798	0.962	0.999	1.1	0.817	0.594	0.378	1.1	0.846	0.956	0.782	0.231	0.705	0.899	0.706	0.483	0.742
NCI-H1437	0.984	0.965	0.949	0.82	0.974	1.03	1.15	0.914	0.89	0.835	1.01	1.01	1.03	0.971	0.887	0.985	0.923	0.988	0.639	0.901
SK-MES-1	1.05	1.03	1.02	0.906	0.972	1.02	0.931	0.57	0.394	0.259	1.06	0.864	0.976	0.881	0.604	1.04	0.912	0.879	0.854	0.798
NCI-H2405	1.01	0.988	1.14	0.959	1.02	0.97	1.08	0.974	0.822	0.532	1.08	0.944	1.09	0.816	0.842	0.945	0.766	0.79	0.797	0.87
NCI-H2023	1	1.04	1.07	0.827	0.837	1.02	0.978	0.874	0.746	0.201	1.16	0.946	1.13	0.85	0.509	0.706	0.595	0.63	0.559	0.619
NCI-H838	0.97	0.981	1.04	0.79	0.904	1	0.986	0.811	0.58	0.193	1.04	0.863	0.967	0.755	0.739	1.03	0.986	0.939	0.848	0.974
NCI-H1299	0.993	1.04	0.963	0.859	0.997	1.03	1.02	0.762	0.799	0.727	1.03	0.977	0.991	1.01	1.07	1.04	1.08	1.03	0.948	1.04
